The text below walks through data of publication PMC5117898 (International Journal of Nanomedicine, 2016).

A short description of series [1]: Dex loading and release study in simulated perilymph. The format is physicochemical. Particulars: dialysis loading, PCA 30 mg and Dex 6 mg in DMSO.
Series [2] has as its system HEI-OC1 cells. Put plainly: Cellular uptake test of CPPs. The format is cell-based, mouse. Particulars: rhodamine-labeled peptides 0.025 mg/mL, flow cytometry. Background: A flow cytometer gives signals particle by particle.

As for PHEA-g-C18-Arg8 [PCA nanoparticles], the “percentage of Dex loading” value in series [1] is given as 16.8%±3.2. Consider RRRRRRRR [Arg8], for which, in series [2], the “fluorescence intensity fold higher compared with Penetratin” value is given as 18.8±3.2 fold and the “fluorescence intensity fold higher compared with Tat” value was 16.1±1.3 fold.
